Test results reported in patent US5025033A, “Alkylene diamines” (Takeda Chemical Industries, Ltd., priority 1988, dated 1991).
Counter-ions that a name gives are not always drawn. Like-named read-outs stand apart in the source and are kept apart here.

Experiments:
[1] = LD50 value, oral, mice; settings: mouse, in vivo, p.o., ten mice per group
Text: LD50 value Ten mice were used for each group. LD50 value was estimated with the dose (mg/kg, p.o.) which induced death in 50% of mice.

[2] = test system: CO2-induced ammesia in mice; experiment: Nootropic action: effect on CO2-induced amnesia in mice (passive avoidance response); type: in vivo, mice (male ICR); settings: i.p., 30 min before the test, saline = 100, ** p < 0.01
Experimental: Effect of the compounds (I) and (II) on impairment of passive avoidance response, induced by exposing mice to 100% CO2 gas, was evaluated. Male ICR mice (Japan Clea) aged 5 weeks were used. The experimental apparatus consisted of two compartments, and one illuminated chamber (9×9×25 cm) was connected to dark chamber (25×25×30 cm) with a guillotine door. Each mouse was placed in the illuminated compartment and then allowed to enter the dark one. When the mouse entered the dark chamber, the door was closed and AC 0.5 mA footshock was applied to the floor grid of the dark chamber. The mouse can memorize the experience receiving the uncomfortable stimulus for a few weeks. Next, the consolidation processes of memory were disturbed by an experimental manipulation: Each mouse was placed under the hypoxic condition by being placed into a 4l desiccator filled with 100% CO2 gas, immediately after receiving the footshock in the dark chamber. When his respiratory function was stopped, the mouse was taken out from the desiccator and given artificial respiration till recovering spontaneous respiration. This procedure disturbed the consolidation of the memory (experience of footshock). On the next day, a retention test was performed whether the mouse memorizes the footshock or not. In the test, the mouse was again placed in the illuminated compartment and the latency to enter the dark compartment was measured.
The mice subjected to hypoxia entered the dark compartment with short latency, 10-20 sec. […] The ameliorating effect of compounds on the amnesia induced by hypoxia was evaluated by the latency time, and was expressed as the percent change of the mean time of the vehicle-treated control group (Table 5.). The compounds were suspended in 5% arabic gum solution, and administered intraperitoneally (i.p.) 30 min. before the test.

[3] = biological target: T1, Acetylcholinesterase (Rattus norvegicus, UniProt P37136); experiment: Acetylcholinesterase inhibiting activity using (acetyl-[3H])-acetylcholine, S1 fraction of rat cerebral cortex homogenate; type: biochemical, male Wistar rat
T1 construct: the S1 fraction of a male Wistar rat cerebral cortex homogenate was used as a cholinesterase source; from tissue; host or cells: male Wistar rat cerebral cortex homogenate, S1 fraction
T1 sequence (P37136 32-614): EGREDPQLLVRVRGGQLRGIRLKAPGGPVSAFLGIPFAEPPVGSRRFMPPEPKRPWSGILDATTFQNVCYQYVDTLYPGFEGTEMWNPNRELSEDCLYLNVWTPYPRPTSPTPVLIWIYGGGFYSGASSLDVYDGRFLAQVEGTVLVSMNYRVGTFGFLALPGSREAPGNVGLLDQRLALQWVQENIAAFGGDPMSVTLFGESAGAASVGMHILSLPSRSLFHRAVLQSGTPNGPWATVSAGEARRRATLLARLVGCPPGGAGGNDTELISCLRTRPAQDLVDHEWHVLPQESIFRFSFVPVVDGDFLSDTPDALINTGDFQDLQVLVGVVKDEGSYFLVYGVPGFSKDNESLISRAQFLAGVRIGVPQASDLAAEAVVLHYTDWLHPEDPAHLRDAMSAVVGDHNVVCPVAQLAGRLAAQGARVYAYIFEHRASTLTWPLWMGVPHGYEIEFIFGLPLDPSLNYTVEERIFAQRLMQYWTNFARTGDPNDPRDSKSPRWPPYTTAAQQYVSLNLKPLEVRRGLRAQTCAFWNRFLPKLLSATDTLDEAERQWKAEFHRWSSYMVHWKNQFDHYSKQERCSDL
Experimental: The compounds according to the invention were examined for cholinesterase inhibiting activity using (acetyl-[^3 H])-acetylcholine. Thus, the S1 fraction of a male Wistar rat cerebral cortex homogenate was used as a cholinesterase source, and (acetyl-[^3 H])-acetylcholine (as substrate) and each test compound according to the invention were added and, after 30 minutes of incubation, the reaction was terminated. A toluene type scintillator was added, and the mixture was shaken, whereby the reaction product [^3 H]-acetic acid was transferred to the toluene layer. The cholinesterase activity was determined by counting said [^3 H]-acetic acid with a liquid scintillation counter.
The cholinesterase inhibiting activity of each test compound was expressed in terms of 50% inhibitory concentration (IC50).

[4] = test system: mice; experiment: General symptoms in mice (salivation, lachrymation, hypothermia); type: in vivo; parameters: key: +++: marked; ++: moderate; +: mild; non-detected; settings: 100 mg/kg orally; observed for 4 hours
Experimental: Four mice were used for each group. Mice were placed in stainless steel cages (13×18×25 cm) and after a 1-hr habituation period the compounds were administered. […] Peripheral and central effects of the compounds were estimated with the incidences of salivation and lachrymation, and a grade of hypothermia, respectively.
The compounds which were soluble in saline were dissolved in saline and the others were suspended in 5% arabic gum solution. Each compound was administered orally (100 mg/kg).
Scorings of the symptoms were made as follows.

[5] = rat cerebral cortex homogenate S1 fraction, 30 minutes of incubation, read-out: Acetylcholinesterase inhibiting activity IC50

Structure (SMILES) | IC50 [3, 5] | also measured
CCN(CCCCCN1C(=O)c2ccc(NC(C)=O)cc2C1=O)Cc1ccccc1 [Compound 11-1] |  | LD50 [1]: > 300 mg/kg; Anti-amnesia (latency, percent change of the mean time of the vehicle-treated control group) ([2]; 1 mg/kg): 455%; IC50 [3]: 320 nM; Hypothermia [4]: +; Lachrymation [4]: ++; Salivation [4]: -
CCN(CCCCCN1C(=O)c2ccc([N+](=O)[O-])cc2C1=O)Cc1ccccc1 [Compound 2-8] | 150 nM | LD50 [1]: 300 mg/kg; Anti-amnesia (latency, percent change of the mean time of the vehicle-treated control group) ([2]; 3 mg/kg): 326%; Hypothermia [4]: +; Lachrymation [4]: ++; Salivation [4]: +
CCN(CCCCCNC(=O)/C=C/c1ccc(C#N)cc1)Cc1ccccc1 [Compound 14-16] | 5000 nM | 
CN(CCCCCCCN1C(=O)c2ccc([N+](=O)[O-])cc2C1=O)Cc1ccccc1 [Compound 2-10] | 1800 nM | 
CCN(CCCCCNC(=O)/C=C/c1ccc([N+](=O)[O-])cc1)Cc1ccccc1OC [Compound 18-2] | 290 nM | 
CCN(CCCCCNC(=O)/C=C/c1ccc(N)cc1)Cc1ccccc1 [Compound 20-3] | 10000 nM | 
CNC(=O)Oc1ccc2c(c1)[C@]1(C)CCN(C)[C@@H]1N2C [Physostigmine, physostigmine, reference compound] |  | LD50 [1]: 2.6 mg/kg; Anti-amnesia (latency, percent change of the mean time of the vehicle-treated control group) ([2]; 0.3 mg/kg): 210%
CC(C)N(CCCCCN1C(=O)c2ccc([N+](=O)[O-])cc2C1=O)Cc1ccccc1 [Compound 2-12] | 830 nM | 
CCN(CCCCCN1C(=O)c2ccc(NS(=O)(=O)Cc3ccccc3)cc2C1=O)Cc1ccccc1 [Compound 11-5] | 240 nM | 
CCN(CCCCCN(C(C)=O)C(=O)/C=C/c1ccc(Cl)c([N+](=O)[O-])c1)Cc1ccccc1 [Compound 16-11] | 410 nM | 
CCN(CCCCCCCN1C(=O)c2ccc([N+](=O)[O-])cc2C1=O)Cc1ccccc1 [Compound 2-15] | 4600 nM | 
CCN(CCCCCNC(=O)/C=C/c1ccc(NC(C)=O)cc1)Cc1ccccc1 [Compound 21-2] | 5700 nM | 
CCN(CCCCCNC(=O)/C=C/c1ccc(OC)c(OC)c1)Cc1ccccc1OC [Compound 18-5] | 430 nM | 
CCN(CCCCCNC(=O)/C=C/c1ccc(O)cc1)Cc1ccccc1 [Compound 14-17] | 13000 nM | 
CCN(CCCCCN1C(=O)c2ccc(OS(C)(=O)=O)cc2C1=O)Cc1ccccc1 [Compound 12-12] | 380 nM | 
CCC(=O)N(CCCCCN(CC)Cc1ccccc1)C(=O)/C=C/c1ccc([N+](=O)[O-])cc1 [Compound 19-1] | 4300 nM | 
CCN(CCCCCN(C(C)=O)C(=O)/C=C/c1ccc([N+](=O)[O-])cc1)Cc1ccccc1 [Compound 16-2] | 560 nM | 
CCCN(CCCCN1C(=O)c2ccc([N+](=O)[O-])cc2C1=O)Cc1ccccc1 [Compound 2-16] | 1900 nM | 
CCN(CCCCCN1C(=O)c2ccc([N+](=O)[O-])cc2C1=O)Cc1cccc(OC)c1OC [Compound 2-27] | 270 nM | 
CCN(CCCCCNC(=O)/C=C/c1ccc([N+](=O)[O-])c(O)c1)Cc1ccccc1 [Compound 14-24] | 170 nM | 
CCN(CCCCCN1C(=O)c2ccc(C(=O)c3ccccc3)cc2C1=O)Cc1ccccc1 [Compound 12-10] | 1100 nM | 
CCN(CCCCCN1C(=O)c2ccc(NS(C)(=O)=O)cc2C1=O)Cc1ccccc1 [Compound 11-6] | 470 nM | 

Structure (SMILES) | IC50 [3, 5] | also measured
CCN(CCCCCCN1C(=O)c2ccc([N+](=O)[O-])cc2C1=O)Cc1ccccc1 [Compound 2-14] | 660 nM | 
CCN(CCCCCCCNC(=O)/C=C/c1ccc([N+](=O)[O-])cc1)Cc1ccccc1 [Compound 14-10] | 15000 nM | 
CCN(CCCCCN1C(=O)c2ccc(NC(=O)c3ccccc3)cc2C1=O)Cc1ccccc1 [Compound 11-2] | 730 nM | 
CCN(CCCCCN(C(C)=O)C(=O)/C=C/c1ccc([N+](=O)[O-])c(OC(C)=O)c1)Cc1ccccc1 [Compound 16-10] | 280 nM | 
CCN(CCCCCN(C(C)=O)C(=O)/C=C/c1ccc(S(C)(=O)=O)cc1)Cc1ccccc1 [Compound 16-8] | 170 nM | 
CCN(CCCCCN1C(=O)c2ccc(C(=O)OC)cc2C1=O)Cc1ccccc1 [Compound 13, Methyl 2-[5-(N-benzyl-N-ethyl)aminopentyl]-1,3(2H)-dioxo-1H-isoindole-5-carboxylate hydrochloride] | 580 nM | 
CN(CCCCN1C(=O)c2ccc(NC(=O)c3ccccc3)cc2C1=O)Cc1ccccc1 [Compound 4, 2-[4-(N-Benzyl-N-methyl)aminobutyl]-5-benzoylamino-1H-isoindole-1,3(2H)-dione] | 11000 nM | 
CCN(CCCCCN(C(C)=O)C(=O)/C=C/c1cccc(OC)c1)Cc1ccccc1 [Compound 16-7] | 5800 nM | 
CCN(CCCCCNC(=O)/C=C/c1cccc([N+](=O)[O-])c1)Cc1ccccc1 [Compound 14-13] | 3000 nM | 
Cc1ccc(S(=O)(=O)Nc2ccc3c(c2)C(=O)N(CCCCN(C)Cc2ccccc2)C3=O)cc1 [Compound 5-2] | 37000 nM | 
CCN(CCCCCNC(=O)/C=C/c1cccc(OC)c1)Cc1ccccc1 [Compound 14-19] | 9300 nM | 
CCN(CCCCCN1C(=O)c2ccc(Cl)cc2C1=O)Cc1ccccc1 [Compound 12-7] | 1300 nM | 
CN(CCCCN1C(=O)c2ccc(NS(=O)(=O)Cc3ccccc3)cc2C1=O)Cc1ccccc1 [Compound 5-3] | 9200 nM | 
CCN(CCCCCN(C(C)=O)C(=O)/C=C/c1ccc([N+](=O)[O-])c(O)c1)Cc1ccccc1 [Compound 16-9] | 350 nM | 
CCN(CCCCN1C(=O)c2ccc([N+](=O)[O-])cc2C1=O)Cc1ccccc1 [Compound 2-3] | 250 nM | 
O=C1c2ccc([N+](=O)[O-])cc2C(=O)N1CCCCN1CCc2ccccc2C1 [Compound 2-6] | 18000 nM | 
CCN(CCCCCN1C(=O)c2ccc(C)cc2C1=O)Cc1ccccc1 [Compound 12-11] | 1800 nM | 
CCN(CCCCCNC(=O)/C=C/c1cc(OC)c(OC)c(OC)c1)Cc1ccccc1 [Compound 14-23] | 4100 nM | 
CCN(CCCCCN1C(=O)c2ccc(C(=O)N(CC)CC)cc2C1=O)Cc1ccccc1 [Compound 12-9] | 980 nM | 
CCOC(=O)c1ccc2c(c1)C(=O)N(CCCCCN(CC)Cc1ccccc1)C2=O [Compound 17, Ethyl 2-[5-(N-benzyl-N-ethyl)aminopentyl]-1,3(2H)-dioxo-1H-isoindole-5-carboxylate.hydrochloride] | 680 nM | 
CCN(CCCCCN1C(=O)c2cccc([N+](=O)[O-])c2C1=O)Cc1ccccc1 [Compound 12-3] | 680 nM | 
CCN(CCCCCN(C(C)=O)C(=O)/C=C/c1cccc([N+](=O)[O-])c1)Cc1ccccc1 [Compound 16-4] | 530 nM | 
